Experimental data as given in ChEMBL document CHEMBL3400105, “Discovery of novel pyrazolopyrimidinone analogs as potent inhibitors of phosphodiesterase type-5” (Bioorg Med Chem, 2015).
In brackets after ≈: the same amount, converted by molar mass.

Key:
[1] = molecular target: T1, cGMP-specific 3',5'-cyclic phosphodiesterase (Homo sapiens, UniProt O76074)
[2] = Metabolic stability in mouse liver microsomes assessed as metabolized drug; format: ADME; details: read-out: Drug metabolism
[3] = Passive permeability across basolateral to apical side in human Caco2 cells; format: ADME, cell-based; details: Caco-2, read-out: permeability
[4] = molecular target: Dual specificity calcium/calmodulin-dependent 3',5'-cyclic nucleotide phosphodiesterase 1A (Homo sapiens, UniProt P54750); assay: Inhibition of PDE1A1 (unknown origin) using fluorescently labeled cAMP substrate by fluorescence polarization assay
[5] = Dissociation constant, pKa of the compound; format: physicochemical
[6] = tested on: Oryctolagus cuniculus; assay: Induction of penile erection in conscious rabbit model assessed as area under curve of length of uncovered penile mucosa at 3 mg/kg, iv into ear vain
[7] = Passive permeability across apical to basolateral side in human Caco2 cells; format: ADME, cell-based
[8] = Plasma protein binding (unknown origin); format: ADME, cell-free; details: read-out: PPB (converted)
[9] = molecular target: High affinity 3',5'-cyclic-AMP phosphodiesterase 7A (Homo sapiens, UniProt Q13946); assay: Inhibition of GST-tagged recombinant human PDE7A1
[10] = Lipophilicity, log P of the compound; format: physicochemical; details: octanol/water
[11] = Lipophilicity, log D of the compound; format: physicochemical; details: octanol/water
[12] = Fraction unbound in whole blood (unknown origin); format: ADME, tissue-based
[13] = AUC (0 to time) in Balbc mouse at 1 mg/kg, iv; format: ADME, organism-based; parameters: dose 1 mg/kg, route intravenous; details: plasma
[14] = Cmax in Balbc mouse at 1 mg/kg, ip; format: ADME, organism-based; parameters: dose 1 mg/kg, route intraperitoneal; details: in vivo
[15] = tested on: Plasma; assay: Initial plasma concentration in Swiss mouse at 10 mg/kg, po; format: ADME, organism-based; parameters: dose 10 mg/kg, route oral; details: in vivo
[16] = AUC (0 to infinity) in Balbc mouse at 1 mg/kg, iv; format: ADME, organism-based; parameters: time infinity, dose 1 mg/kg, route intravenous; details: plasma
[17] = Cmax in Swiss mouse at 10 mg/kg, po; format: ADME, organism-based; parameters: dose 10 mg/kg, route oral; details: in vivo
[18] = molecular target: cGMP-dependent 3',5'-cyclic phosphodiesterase (Homo sapiens, UniProt O00408); assay: Inhibition of PDE2A1 (unknown origin) using fluorescently labeled cAMP substrate by fluorescence polarization assay
[19] = Apparent oral clearance in Swiss mouse at 10 mg/kg, po; format: ADME, organism-based; parameters: dose 10 mg/kg, route oral; details: in vivo
[20] = molecular target: cAMP and cAMP-inhibited cGMP 3',5'-cyclic phosphodiesterase 10A (Homo sapiens, UniProt Q9Y233); assay: Inhibition of PDE10A1 (unknown origin) using fluorescently labeled cAMP substrate by fluorescence polarization assay
[21] = in vitro; details: human, Caco-2
[22] = Apparent oral clearance in Balbc mouse at 1 mg/kg, iv; format: ADME, organism-based; parameters: dose 1 mg/kg, route oral; details: in vivo
[23] = AUC (0 to time) in Swiss mouse at 10 mg/kg, po; format: ADME, organism-based; parameters: dose 10 mg/kg, route oral; details: plasma
[24] = Tmax in Balbc mouse at 1 mg/kg, ip; format: ADME, organism-based; parameters: dose 1 mg/kg, route intraperitoneal; details: in vivo
[25] = molecular target: High affinity cAMP-specific and IBMX-insensitive 3',5'-cyclic phosphodiesterase 8A (Homo sapiens, UniProt O60658); assay: Inhibition of GST-tagged recombinant human PDE8A1
[26] = Solubility in water; format: physicochemical
[27] = molecular target: Cone cGMP-specific 3',5'-cyclic phosphodiesterase subunit alpha' (Homo sapiens, UniProt P51160); assay: Inhibition of PDE6C (unknown origin)
[28] = AUC (0 to time) in Balbc mouse at 1 mg/kg, ip; format: ADME, organism-based; parameters: dose 1 mg/kg, route intraperitoneal; details: plasma
[29] = molecular target: T1, cGMP-specific 3',5'-cyclic phosphodiesterase; assay: Inhibition of PDE5A1 (unknown origin)
[30] = Tmax in Swiss mouse at 10 mg/kg, po; format: ADME, organism-based; parameters: dose 10 mg/kg, route oral; details: in vivo
[31] = molecular target: High affinity cGMP-specific 3',5'-cyclic phosphodiesterase 9A (Homo sapiens, UniProt O76083); assay: Inhibition of GST-tagged recombinant human PDE9A2
[32] = Half life in Swiss mouse at 10 mg/kg, po; format: ADME, organism-based; parameters: dose 10 mg/kg, route oral; details: in vivo
[33] = Solubility in simulated intestinal fluid; format: ADME
[34] = Apparent oral volume of distribution in Balbc mouse at 1 mg/kg, iv; format: ADME, organism-based; parameters: dose 1 mg/kg, route oral; details: in vivo
[35] = molecular target: cGMP-inhibited 3',5'-cyclic phosphodiesterase 3A (Homo sapiens, UniProt Q14432); assay: Inhibition of PDE3A (unknown origin) using fluorescently labeled cAMP substrate by fluorescence polarization assay
[36] = Cmax in Balbc mouse at 1 mg/kg, iv; format: ADME, organism-based; parameters: dose 1 mg/kg, route intravenous; details: in vivo
[37] = Apparent oral volume of distribution in Swiss mouse at 10 mg/kg, po; format: ADME, organism-based; parameters: dose 10 mg/kg, route oral; details: in vivo
[38] = AUC (0 to infinity) in Swiss mouse at 10 mg/kg, po; format: ADME, organism-based; parameters: time infinity, dose 10 mg/kg, route oral; details: plasma
[39] = molecular target: 3',5'-cyclic-AMP phosphodiesterase 4A (Homo sapiens, UniProt P27815); assay: Inhibition of PDE4A1 (unknown origin) using fluorescently labeled cAMP substrate by fluorescence polarization assay
[40] = Solubility in PBS; format: physicochemical
[41] = AUC (0 to infinity) in Balbc mouse at 1 mg/kg, ip; format: ADME, organism-based; parameters: time infinity, dose 1 mg/kg, route intraperitoneal; details: plasma
[42] = molecular target: CYP2C9 (Homo sapiens, UniProt P11712); assay: Inhibition of CYP2C9 (unknown origin) at 10 uM; format: ADME
[43] = Solubility in simulated gastric fluid; format: ADME, Stomach
[44] = molecular target: Dual 3',5'-cyclic-AMP and -GMP phosphodiesterase 11A (Homo sapiens, UniProt Q9HCR9); assay: Inhibition of GST-tagged recombinant human PDE11A4
[45] = molecular target: CYP3A4 (Homo sapiens, UniProt P08684); assay: Inhibition of CYP3A4 (unknown origin) at 10 uM; format: ADME

Sequence of High affinity 3',5'-cyclic-AMP phosphodiesterase 7A (Q13946 whole entry): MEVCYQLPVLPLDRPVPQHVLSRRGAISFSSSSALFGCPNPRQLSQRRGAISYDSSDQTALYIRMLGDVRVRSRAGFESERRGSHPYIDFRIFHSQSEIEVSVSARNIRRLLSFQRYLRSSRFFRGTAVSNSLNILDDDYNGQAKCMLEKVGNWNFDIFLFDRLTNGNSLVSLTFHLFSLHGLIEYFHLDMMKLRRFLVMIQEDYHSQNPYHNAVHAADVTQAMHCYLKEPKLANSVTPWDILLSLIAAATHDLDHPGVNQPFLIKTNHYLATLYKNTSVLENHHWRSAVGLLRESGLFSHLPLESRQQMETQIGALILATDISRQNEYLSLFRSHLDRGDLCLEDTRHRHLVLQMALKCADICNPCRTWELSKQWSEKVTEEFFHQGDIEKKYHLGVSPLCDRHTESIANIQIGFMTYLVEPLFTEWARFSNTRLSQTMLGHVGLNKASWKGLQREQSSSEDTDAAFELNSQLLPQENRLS
Sequence of Dual specificity calcium/calmodulin-dependent 3',5'-cyclic nucleotide phosphodiesterase 1A (P54750 whole entry): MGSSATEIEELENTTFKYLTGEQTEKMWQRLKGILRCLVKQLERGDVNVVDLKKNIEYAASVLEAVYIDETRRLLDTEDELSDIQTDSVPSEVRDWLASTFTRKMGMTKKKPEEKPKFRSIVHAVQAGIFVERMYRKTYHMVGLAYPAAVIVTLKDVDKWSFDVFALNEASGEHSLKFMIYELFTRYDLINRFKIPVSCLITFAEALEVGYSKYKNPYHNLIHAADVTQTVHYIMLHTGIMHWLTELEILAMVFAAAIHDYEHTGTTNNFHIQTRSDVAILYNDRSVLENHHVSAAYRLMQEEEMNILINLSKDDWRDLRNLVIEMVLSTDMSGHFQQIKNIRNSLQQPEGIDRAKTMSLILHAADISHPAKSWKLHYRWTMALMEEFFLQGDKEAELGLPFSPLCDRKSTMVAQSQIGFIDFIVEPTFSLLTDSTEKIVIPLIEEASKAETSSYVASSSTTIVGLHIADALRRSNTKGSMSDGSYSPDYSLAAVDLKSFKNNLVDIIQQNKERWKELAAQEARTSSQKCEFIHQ
Sequence of CYP2C9 (P11712 whole entry): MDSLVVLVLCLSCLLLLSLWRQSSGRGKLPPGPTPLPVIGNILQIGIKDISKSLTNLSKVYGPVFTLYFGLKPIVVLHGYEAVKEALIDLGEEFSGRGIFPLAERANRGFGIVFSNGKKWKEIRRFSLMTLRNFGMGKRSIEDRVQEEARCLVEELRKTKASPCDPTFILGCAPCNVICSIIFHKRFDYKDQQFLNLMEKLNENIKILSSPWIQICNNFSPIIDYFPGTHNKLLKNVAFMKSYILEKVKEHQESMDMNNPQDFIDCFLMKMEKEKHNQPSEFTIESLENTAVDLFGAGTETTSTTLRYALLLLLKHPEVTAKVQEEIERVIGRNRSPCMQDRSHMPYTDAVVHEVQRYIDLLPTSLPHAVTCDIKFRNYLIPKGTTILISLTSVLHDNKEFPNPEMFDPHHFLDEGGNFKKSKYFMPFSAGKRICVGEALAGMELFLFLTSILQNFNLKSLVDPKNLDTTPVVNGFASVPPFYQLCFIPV
Sequence of cAMP and cAMP-inhibited cGMP 3',5'-cyclic phosphodiesterase 10A (Q9Y233 whole entry): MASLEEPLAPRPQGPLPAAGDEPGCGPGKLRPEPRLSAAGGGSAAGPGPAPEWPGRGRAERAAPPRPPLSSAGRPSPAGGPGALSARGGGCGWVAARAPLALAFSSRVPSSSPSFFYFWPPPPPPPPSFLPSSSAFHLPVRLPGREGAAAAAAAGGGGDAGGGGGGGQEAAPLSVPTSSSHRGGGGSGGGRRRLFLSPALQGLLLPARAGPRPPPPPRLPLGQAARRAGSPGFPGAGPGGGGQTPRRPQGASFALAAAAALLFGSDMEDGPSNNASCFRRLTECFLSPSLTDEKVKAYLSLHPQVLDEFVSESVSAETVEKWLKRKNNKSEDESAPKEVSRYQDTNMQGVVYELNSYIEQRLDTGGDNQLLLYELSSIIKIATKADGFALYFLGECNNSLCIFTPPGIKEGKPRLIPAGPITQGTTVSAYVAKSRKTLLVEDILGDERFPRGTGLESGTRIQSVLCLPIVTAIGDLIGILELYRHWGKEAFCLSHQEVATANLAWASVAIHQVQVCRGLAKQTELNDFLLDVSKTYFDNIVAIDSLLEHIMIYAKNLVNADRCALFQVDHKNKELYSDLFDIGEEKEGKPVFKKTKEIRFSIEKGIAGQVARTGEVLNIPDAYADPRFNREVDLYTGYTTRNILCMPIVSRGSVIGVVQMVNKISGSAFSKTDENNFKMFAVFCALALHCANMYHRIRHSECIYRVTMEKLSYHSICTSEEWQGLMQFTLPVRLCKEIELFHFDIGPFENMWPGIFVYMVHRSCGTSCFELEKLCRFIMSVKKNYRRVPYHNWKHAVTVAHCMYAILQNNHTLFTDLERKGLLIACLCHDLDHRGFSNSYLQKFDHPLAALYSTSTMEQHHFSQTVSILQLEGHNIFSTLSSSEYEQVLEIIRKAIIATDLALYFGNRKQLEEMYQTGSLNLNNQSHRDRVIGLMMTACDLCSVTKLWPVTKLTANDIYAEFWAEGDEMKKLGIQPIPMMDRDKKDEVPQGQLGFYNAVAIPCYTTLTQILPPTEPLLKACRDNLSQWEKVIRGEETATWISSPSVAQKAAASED
Sequence of High affinity cGMP-specific 3',5'-cyclic phosphodiesterase 9A (O76083 whole entry): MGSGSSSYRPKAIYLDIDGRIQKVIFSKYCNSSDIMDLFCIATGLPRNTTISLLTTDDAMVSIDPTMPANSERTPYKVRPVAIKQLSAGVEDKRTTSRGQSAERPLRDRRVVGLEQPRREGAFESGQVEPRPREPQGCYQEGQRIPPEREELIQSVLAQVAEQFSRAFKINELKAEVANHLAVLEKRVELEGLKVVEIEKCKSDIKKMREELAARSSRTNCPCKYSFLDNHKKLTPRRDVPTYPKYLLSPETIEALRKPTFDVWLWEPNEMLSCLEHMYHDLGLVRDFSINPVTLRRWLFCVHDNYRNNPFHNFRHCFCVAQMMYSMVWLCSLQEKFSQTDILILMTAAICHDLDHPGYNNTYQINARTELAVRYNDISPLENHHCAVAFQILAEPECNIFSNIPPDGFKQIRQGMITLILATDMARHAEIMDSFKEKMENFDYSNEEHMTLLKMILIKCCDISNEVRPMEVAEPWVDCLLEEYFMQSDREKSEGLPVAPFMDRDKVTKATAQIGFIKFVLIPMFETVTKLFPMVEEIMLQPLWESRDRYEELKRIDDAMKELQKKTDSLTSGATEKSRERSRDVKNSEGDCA
Sequence of High affinity cAMP-specific and IBMX-insensitive 3',5'-cyclic phosphodiesterase 8A (O60658 whole entry): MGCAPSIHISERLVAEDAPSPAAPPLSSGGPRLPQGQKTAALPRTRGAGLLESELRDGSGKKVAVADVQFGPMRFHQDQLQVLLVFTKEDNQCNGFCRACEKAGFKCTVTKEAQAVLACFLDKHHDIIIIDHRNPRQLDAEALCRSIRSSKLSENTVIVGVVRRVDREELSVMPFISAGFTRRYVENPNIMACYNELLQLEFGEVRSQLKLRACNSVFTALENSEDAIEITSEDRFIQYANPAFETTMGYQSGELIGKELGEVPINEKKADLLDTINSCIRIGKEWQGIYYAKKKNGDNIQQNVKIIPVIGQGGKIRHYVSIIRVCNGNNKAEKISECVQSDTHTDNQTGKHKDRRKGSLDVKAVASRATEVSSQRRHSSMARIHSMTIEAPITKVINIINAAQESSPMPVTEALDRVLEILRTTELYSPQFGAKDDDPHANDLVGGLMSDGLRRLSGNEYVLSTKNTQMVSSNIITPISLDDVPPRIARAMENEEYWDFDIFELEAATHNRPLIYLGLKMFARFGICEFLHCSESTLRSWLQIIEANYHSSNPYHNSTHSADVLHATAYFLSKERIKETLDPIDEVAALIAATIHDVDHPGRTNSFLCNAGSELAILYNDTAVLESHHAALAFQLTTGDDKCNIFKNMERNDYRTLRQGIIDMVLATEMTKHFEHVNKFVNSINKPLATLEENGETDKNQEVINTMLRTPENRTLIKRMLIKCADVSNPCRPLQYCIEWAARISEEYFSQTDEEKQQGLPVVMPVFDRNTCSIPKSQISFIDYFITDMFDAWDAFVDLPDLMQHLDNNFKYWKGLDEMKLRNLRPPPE
Sequence of 3',5'-cyclic-AMP phosphodiesterase 4A (P27815 whole entry): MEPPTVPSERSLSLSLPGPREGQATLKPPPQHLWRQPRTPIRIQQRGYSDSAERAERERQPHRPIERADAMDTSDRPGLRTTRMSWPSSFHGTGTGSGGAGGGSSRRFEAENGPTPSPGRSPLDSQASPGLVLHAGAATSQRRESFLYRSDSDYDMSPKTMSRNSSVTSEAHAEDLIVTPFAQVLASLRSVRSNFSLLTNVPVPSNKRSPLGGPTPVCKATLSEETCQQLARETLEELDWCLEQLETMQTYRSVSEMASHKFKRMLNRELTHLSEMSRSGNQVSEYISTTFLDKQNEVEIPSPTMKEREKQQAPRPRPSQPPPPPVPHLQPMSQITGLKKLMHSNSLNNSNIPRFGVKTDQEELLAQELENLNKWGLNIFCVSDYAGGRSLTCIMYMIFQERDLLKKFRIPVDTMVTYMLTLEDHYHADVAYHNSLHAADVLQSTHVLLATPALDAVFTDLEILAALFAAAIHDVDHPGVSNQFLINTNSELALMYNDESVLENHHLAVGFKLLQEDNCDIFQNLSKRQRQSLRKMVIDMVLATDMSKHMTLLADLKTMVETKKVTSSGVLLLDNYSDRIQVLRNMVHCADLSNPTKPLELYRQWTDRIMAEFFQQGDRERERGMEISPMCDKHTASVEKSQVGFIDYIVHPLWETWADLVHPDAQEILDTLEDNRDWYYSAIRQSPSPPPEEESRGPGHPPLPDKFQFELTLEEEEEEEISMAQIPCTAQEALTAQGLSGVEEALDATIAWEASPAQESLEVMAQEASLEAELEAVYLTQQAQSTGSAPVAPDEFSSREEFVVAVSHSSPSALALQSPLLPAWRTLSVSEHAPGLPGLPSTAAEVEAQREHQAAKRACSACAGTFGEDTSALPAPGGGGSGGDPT

In the case of `CCCc1nn(C)c2c(=O)[nH]c(-c3cc(S(=O)(=O)NCCCO)ccc3OCC)nc12`, the IC50 [1] is reported as 3.4 nM.
In the case of `CCCc1nn(C)c2c(=O)[nH]c(-c3cc(S(=O)(=O)NCCc4c[nH]c5ccccc45)ccc3OCC)nc12`, the IC50 [1] is reported as 13 nM.
With `CCCCCCNS(=O)(=O)c1ccc(OCC)c(-c2nc3c(CCC)nn(C)c3c(=O)[nH]2)c1` the IC50 [1] was 12 nM.
In the case of `CCCc1nn(C)c2c(=O)[nH]c(-c3cc(S(=O)(=O)N4CCN(C)CC4)ccc3OCC)nc12`, the metabolised [2] is reported as 90%, the Papp B→A [3] is reported as 45.5 ×10⁻⁶ cm/s and the IC50 [4] is reported as 600 nM. The pKa [5] was 4.86, the AUC [6] was 305 and the permeability ([7]; Caco-2) was 37.9 ×10⁻⁶ cm/s. The fraction unbound [8] was 0.04, the IC50 [9] was 22000 nM and the logP [10] was 2.58. For the same compound, the logD [11] was 2.69 and the fraction unbound [12] was 0.066.
Work on `CCCc1nn(C)c2c(=O)[nH]c(-c3cc(S(=O)(=O)NCCCN4CCOCC4)ccc3OCC)nc12` yielded an IC50 [1] of 2.6 nM.
`CCCc1nn(C)c2c(=O)[nH]c(-c3cc(S(=O)(=O)NCCCCCO)ccc3OCC)nc12` showed an IC50 [1] of 1.7 nM.
In the case of `CCCc1nn(C)c2c(=O)[nH]c(-c3cc(S(=O)(=O)NCc4ccc(OC)c(F)c4)ccc3OCC)nc12`, the IC50 [1] is reported as 3.3 nM.
Compound `CCCc1nn(C)c2c(=O)[nH]c(-c3cc(S(=O)(=O)NCCN(CC)CC)ccc3OCC)nc12` has an IC50 [1] of 32 nM.
For `CCCc1nn(C)c2c(=O)[nH]c(-c3cc(S(=O)(=O)NCCCCCCO)ccc3OCC)nc12`, the metabolised [2] was greater than 95%, the Papp B→A [3] was 54.4 ×10⁻⁶ cm/s and the AUC [13] was 80 ng·h/mL. It also gave a Cmax [14] of 105 ng/mL, an IC50 [4] of 62 nM and a C0 [15] of 556 ng/mL. It also gave an AUC(0-inf) [16] of 81.8 ng·h/mL, a Cmax [17] of 380 ng/mL and an IC50 [18] of 560 nM. It also gave a CL/F [19] of 1070 mL/min/kg, an IC50 [20] of 2000 nM and an efflux ratio [21] of 6. For the same compound, the CL/F [22] was 204 mL/min/kg, the pKa [5] was 5.22 and the AUC [23] was 134 ng·h/mL. For the same compound, the Tmax [24] was 30 min, the IC50 [25] was greater than 10000 nM and the solubility [26] was 20 µM (≈ 9.83 µg/mL). For the same compound, the IC50 [27] was 5.2 nM, the AUC [28] was 69.4 ng·h/mL and the IC50 [29] was 1.5 nM. The Tmax [30] was 4.98 min, the AUC [6] was 432 and the IC50 [31] was 3800 nM. The half-life [32] was 48 min, the solubility [33] was 10 µM (≈ 4.92 µg/mL) and the Papp A→B ([7]; Caco-2, read-out: permeability) was 9.1 ×10⁻⁶ cm/s. For the same compound, the fraction unbound [8] was 0.023, the Vd/F [34] was 1.65 L/kg and the IC50 [35] was greater than 10000 nM. It also gave a Cmax [36] of 221 ng/mL, a Vd/F [37] of 76.8 L/kg and an AUC(0-inf) [38] of 156 ng·h/mL. For the same compound, the IC50 [39] was 3700 nM, the solubility [40] was 20 µM (≈ 9.83 µg/mL) and the IC50 ([9]; read-out: IC50) was greater than 10000 nM. For the same compound, the AUC(0-inf) [41] was 71 ng·h/mL, the inhibition at 10 µM [42] was 56% and the IC50 [1] was 1.5 nM. It also gave a logP [10] of 2.73, a solubility [43] of 80 µM (≈ 39.3 µg/mL) and an IC50 [44] of 1400 nM. The logD [11] was 2.73, the inhibition at 10 µM [45] was 50% and the fraction unbound [12] was 0.023.
In the case of `CCCc1nn(C)c2c(=O)[nH]c(-c3cc(S(=O)(=O)NCCCN(C)C)ccc3OCC)nc12`, the IC50 [1] is reported as 14 nM.
Compound `CCCCCCCNS(=O)(=O)c1ccc(OCC)c(-c2nc3c(CCC)nn(C)c3c(=O)[nH]2)c1` has an IC50 [1] of 3.9 nM.
Work on `CCCc1nn(C)c2c(=O)[nH]c(-c3cc(S(=O)(=O)NCCN4CCCCC4)ccc3OCC)nc12` yielded an IC50 [1] of 16 nM.
With `CCCc1nn(C)c2c(=O)[nH]c(-c3cc(S(=O)(=O)NCCCCO)ccc3OCC)nc12` the IC50 [1] was 1.9 nM.
Compound `CCCc1nn(C)c2c(=O)[nH]c(-c3cc(S(=O)(=O)NCCN4CCOCC4)ccc3OCC)nc12` has an IC50 [1] of 1.6 nM.
